This passage reports Activity results from ChEMBL document CHEMBL1151018, “Studies On uro'gen III synthase with modified bilanes” (Bioorg Med Chem Lett, 1994).

Each structure is given as a SMILES string. The source made the active and inactive calls. The rule behind the calls is not given here.

One test addresses T1, Uroporphyrinogen-III synthase (Homo sapiens) (UniProt P10746).
T1 sequence (whole entry): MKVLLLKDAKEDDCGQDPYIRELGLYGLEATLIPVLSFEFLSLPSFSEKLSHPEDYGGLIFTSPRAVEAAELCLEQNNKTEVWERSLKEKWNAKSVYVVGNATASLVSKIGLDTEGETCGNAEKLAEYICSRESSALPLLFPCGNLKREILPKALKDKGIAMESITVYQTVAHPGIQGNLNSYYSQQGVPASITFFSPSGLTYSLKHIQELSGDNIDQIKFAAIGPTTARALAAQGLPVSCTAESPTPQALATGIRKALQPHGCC
In words: Compound was tested for its activity as substrate of Uroporphyrinogen III synthase; Poor substrate.
With `Cc1c(CCC(=O)O)c[nH]c1Cc1[nH]c(Cc2[nH]c(Cc3[nH]c(CO)c(CC(=O)O)c3CCC(=O)O)c(CC(=O)O)c2CCC(=O)O)c(CC(=O)O)c1CCC(=O)O`, the Activity entry was “(+)”.

For another test, the target named is T1, Uroporphyrinogen-III synthase (Homo sapiens). In words: Compound was tested for its activity as substrate of Uroporphyrinogen III synthase; Yes.
`O=C(O)CCc1c[nH]c(Cc2[nH]c(Cc3[nH]c(Cc4[nH]c(CO)c(CC(=O)O)c4CCC(=O)O)c(CC(=O)O)c3CCC(=O)O)c(CC(=O)O)c2CCC(=O)O)c1CC(=O)O`: the result was Active.
Same read-out and setting: in the case of `CCc1c[nH]c(Cc2[nH]c(Cc3[nH]c(Cc4[nH]c(CO)c(CC(=O)O)c4CCC(=O)O)c(CC(=O)O)c3CCC(=O)O)c(CC(=O)O)c2CCC(=O)O)c1CC(=O)O` it was “Active”; in that of `O=C(O)CCc1c(CC(=O)O)c[nH]c1Cc1[nH]c(Cc2[nH]c(Cc3[nH]c(CO)c(CC(=O)O)c3CCC(=O)O)c(CC(=O)O)c2CCC(=O)O)c(CC(=O)O)c1CCC(=O)O`, “Active”; in that of `O=C(O)CCCc1c[nH]c(Cc2[nH]c(Cc3[nH]c(Cc4[nH]c(CO)c(CC(=O)O)c4CCC(=O)O)c(CC(=O)O)c3CCC(=O)O)c(CC(=O)O)c2CCC(=O)O)c1CC(=O)O`, “Active”.
Take `O=C(O)CCc1c[nH]c(Cc2[nH]c(Cc3[nH]c(Cc4[nH]c(CO)c(CC(=O)O)c4CCC(=O)O)c(CC(=O)O)c3CCC(=O)O)c(CCC(=O)O)c2CC(=O)O)c1CC(=O)O`: the result was Active.

The next test has the same target. Briefly: Compound was tested for its activity as inhibitor of Uroporphyrinogen III synthase; Yes.
For `N#Cc1[nH]c(Cc2[nH]c(Cc3[nH]c(Cc4[nH]c(CO)c(CC(=O)O)c4CCC(=O)O)c(CC(=O)O)c3CCC(=O)O)c(CC(=O)O)c2CCC(=O)O)c(CC(=O)O)c1CCC(=O)O`, the result was Active.
`CC(O)c1[nH]c(Cc2[nH]c(Cc3[nH]c(Cc4[nH]cc(CCC(=O)O)c4CC(=O)O)c(CCC(=O)O)c3CC(=O)O)c(CCC(=O)O)c2CC(=O)O)c(CCC(=O)O)c1CC(=O)O` (configuration not stated): the result was Active.
Turning to `Cn1cc(CCC(=O)O)c(CC(=O)O)c1Cc1[nH]c(Cc2[nH]c(Cc3[nH]c(CO)c(CC(=O)O)c3CCC(=O)O)c(CC(=O)O)c2CCC(=O)O)c(CC(=O)O)c1CCC(=O)O`, the result was Active.
The same measure, in the same setting: the value for `Cn1c(Cc2[nH]cc(CCC(=O)O)c2CC(=O)O)c(CCC(=O)O)c(CC(=O)O)c1Cc1[nH]c(Cc2[nH]c(CO)c(CC(=O)O)c2CCC(=O)O)c(CC(=O)O)c1CCC(=O)O` was “Active”; that for `Cc1[nH]c(Cc2[nH]c(Cc3[nH]c(Cc4[nH]c(CO)c(CC(=O)O)c4CCC(=O)O)c(CC(=O)O)c3CCC(=O)O)c(CC(=O)O)c2CCC(=O)O)c(CC(=O)O)c1CCC(=O)O` was “Active”; that for `O=C(O)CCc1c(Br)[nH]c(Cc2[nH]c(Cc3[nH]c(Cc4[nH]c(CO)c(CC(=O)O)c4CCC(=O)O)c(CC(=O)O)c3CCC(=O)O)c(CC(=O)O)c2CCC(=O)O)c1CC(=O)O` was “Active”.
